Experiment [1] deals with rat small-intestinal brush border membrane vesicles. As to the kind of experiment: Inhibitory effect on 33PO4 uptake into rat small-intestinal brush border membrane vesicles (rapid filtration method). It is filed as biochemical. To be noted: 1 μM test compound; 33PO4 uptake into rat small-intestinal BBMVs, reacted for 60 seconds. As to the method:
Test Example 1: Inhibitory Effect on ^33PO4 Uptake into Rat Small-Intestinal Brush Border Membrane Vesicles Brush border membrane vesicles (BBMVs) were prepared using the upper region of the small intestine of each Wistar female rat (4-5 weeks old). The preparation of BBMVs was performed according to the method of Murer et al. (Murer […]. Sodium/proton antiport in brush-border-membrane vesicles isolated from rat small intestine and kidney. 1976. J Am Soc Nephrol. 1998 January; 9 (1): 143-50). The ^33PO4 transport activity of the small-intestinal BBMVs was determined by the rapid filtration method. […] Then, ice-cold buffer C (110 mM NaCl, 1 mM KH2PO4, and 10 mM HEPES (pH 7.5)) was added to each reaction mixture, which was immediately suction-filtered through a Millipore filter. The filter was washed with buffer C, and each sample was then dissolved in a liquid scintillator. The amount of ^33PO4 uptake into BBMVs was measured using a liquid scintillation counter.

The target in another experiment is T1, human NaPi-IIb (Homo sapiens, UniProt O95436).
T1 construct: expressed in transfected cells
T1 sequence (O95436 1-690): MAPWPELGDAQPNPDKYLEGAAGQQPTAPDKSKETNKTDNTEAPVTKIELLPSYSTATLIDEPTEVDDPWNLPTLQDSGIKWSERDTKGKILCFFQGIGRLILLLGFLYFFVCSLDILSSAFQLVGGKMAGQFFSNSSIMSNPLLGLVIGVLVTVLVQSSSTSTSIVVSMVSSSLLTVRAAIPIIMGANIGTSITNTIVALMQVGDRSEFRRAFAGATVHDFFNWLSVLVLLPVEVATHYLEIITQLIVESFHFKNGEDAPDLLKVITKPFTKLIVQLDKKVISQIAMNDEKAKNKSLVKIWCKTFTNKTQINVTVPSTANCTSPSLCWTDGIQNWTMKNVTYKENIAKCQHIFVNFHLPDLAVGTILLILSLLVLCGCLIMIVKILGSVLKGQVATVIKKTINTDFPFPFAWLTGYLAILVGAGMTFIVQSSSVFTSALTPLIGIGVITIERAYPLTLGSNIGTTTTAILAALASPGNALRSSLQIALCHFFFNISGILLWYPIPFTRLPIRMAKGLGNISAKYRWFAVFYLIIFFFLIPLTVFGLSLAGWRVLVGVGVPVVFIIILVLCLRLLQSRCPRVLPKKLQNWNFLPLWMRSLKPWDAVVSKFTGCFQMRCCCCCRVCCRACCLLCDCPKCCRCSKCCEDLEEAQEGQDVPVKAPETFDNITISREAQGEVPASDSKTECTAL
Description: Inhibitory effect on 33PO4 uptake into human NaPi-IIb-expressing CHO cells. Type of experiment: cell-based. The method in brief: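 Uptake of ³³PO4 was measured by scintillation counting after ice-cold buffer A washes. Cells were CHO stably expressing human NaPi-IIb, seeded overnight, and exposed to ³³PO4 in buffer A at room temperature.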

[2] abbreviates: read-out: IC50 against 33PO4 uptake into human NaPi-IIb-expressing cells.

The structures appear in SMILES notation. pIC50: −log10 of the molar value. Read-outs that look alike come from different tables or passages of the source.

These results are taken from patent US9499553B2 (CHUGAI SEIYAKU KABUSHIKI KAISHA, priority 2013, dated 2016).

A word on the pIC50: it is −log10 of the IC50, conventionally taken in molar units. Consider `C[C@]12CCCN1N(Cc1cccc(C#N)c1)C(=O)C(C(=O)Nc1ccc(C(F)(F)F)cc1-c1cnc(Cl)c(C#N)c1)=C2O` [Example 51], for which, in experiment [1], the “Rate of uptake inhibition (%) (1 μM)” value was 72%. At human NaPi-IIb (read-out: IC50), the pIC50 is 4.80.

`C[C@]12CCCN1N(Cc1cccc(F)c1F)C(=O)C(C(=O)Nc1cc(Br)c(Br)cc1F)=C2O` [Example 33]: in experiment [1], the “Rate of uptake inhibition (%) (1 μM)” value is reported as 77%. For the same molecule, the pIC50 at human NaPi-IIb (read-out: IC50) is 5.22. The matching figures for `C[C@]12CCCN1N(Cc1cccc(F)c1F)C(=O)C(C(=O)Nc1ccc(Br)c(F)c1F)=C2O` [Example 32]: 73% and 5.55. In the same order, the values of `C[C@]12CCCN1N(Cc1cccc(F)c1F)C(=O)C(C(=O)Nc1ccc(C(F)(F)F)cc1-c1ccc(C#N)nc1)=C2O` [Example 94] are 73% and 5.06. For `C[C@]12CCCN1N(Cc1ccc(OCCN3CCOCC3)c(F)c1F)C(=O)C(C(=O)Nc1ccc(C(F)(F)F)nc1-c1ccccc1OC(F)(F)F)=C2O` [Example 59], the “Rate of uptake inhibition (%) (1 μM)” value in experiment [1] worked out at 84%. The pIC50 at human NaPi-IIb (read-out: IC50) was 5.13. Turning to `COC(=O)c1cc(-c2cc(C(F)(F)F)ccc2NC(=O)C2=C(O)[C@@]3(C)CCCN3N(Cc3cccc(F)c3F)C2=O)nc(Cl)n1` [Example 98], the “Rate of uptake inhibition (%) (1 μM)” value in experiment [1] is 53%. The negative-log IC50 (pIC50) at human NaPi-IIb (read-out: IC50) was 4.97. In the same order, the values of `C[C@]12CCCN1N(Cc1cccc(F)c1F)C(=O)C(C(=O)Nc1ccc(C(F)(F)F)cc1-c1cccc(C#N)c1F)=C2O` [Example 46] are 71% and 4.85. The matching figures for `C[C@]12CCCN1N(Cc1cccc(F)c1Br)C(=O)C(C(=O)Nc1ccc(Br)c(Cl)c1)=C2O` [Example 41]: 84% and 5.18. Consider `C[C@]12CCCN1N(Cc1ccc(OCCN3CCOCC3)c(F)c1F)C(=O)C(C(=O)Nc1ccc(C(F)(F)F)cc1-c1ncnc(C#N)c1Cl)=C2O` [Example 53], for which the “Rate of uptake inhibition (%) (1 μM)” value in experiment [1] was 72%. In addition, the pIC50 at human NaPi-IIb (read-out: IC50) is 5.02. Consider `C[C@]12CCCN1N(Cc1cccc(F)c1Br)C(=O)C(C(=O)Nc1ccc(Br)c(C(F)(F)F)c1)=C2O` [Example 42], for which, in experiment [1], the “Rate of uptake inhibition (%) (1 μM)” value worked out at 67%. Also, at human NaPi-IIb (read-out: IC50), the pIC50 is 5.30. For `C[C@]12CCCN1N(Cc1cccc(F)c1F)C(=O)C(C(=O)Nc1ccc(Br)c(Cl)c1)=C2O` [Example 31], the “Rate of uptake inhibition (%) (1 μM)” value in experiment [1] is on record as 76%. On to `C[C@]12CCCN1N(Cc1cccc(F)c1Br)C(=O)C(C(=O)Nc1cccc(Cl)c1F)=C2O` [Example 43], for which the “Rate of uptake inhibition (%) (1 μM)” value in experiment [1] is 79%. Moreover, at human NaPi-IIb (read-out: IC50), the pIC50 was 5.08. In the case of `C[C@]12CCCN1N(Cc1cccc(F)c1Br)C(=O)C(C(=O)Nc1ccc(Br)c(C#N)c1)=C2O` [Example 40], the “Rate of uptake inhibition (%) (1 μM)” value in experiment [1] is reported as 87%. At human NaPi-IIb (read-out: IC50), the pIC50 was 5.19. Consider `COc1ccc(CN2C(=O)C(C(=O)Nc3cc(F)c(Br)c(F)c3)=C(O)[C@@]3(C)CCCN23)c(OC)c1` [Example 58], for which the “Rate of uptake inhibition (%) (1 μM)” value in experiment [1] worked out at 46%.

With `Cc1c(-c2cc(C(F)(F)F)ccc2NC(=O)C2=C(O)[C@@]3(C)CCCN3N(Cc3cccc(F)c3F)C2=O)ccnc1Cl` [Example 47], in experiment [1], the “Rate of uptake inhibition (%) (1 μM)” value is reported as 91%. The pIC50 on human NaPi-IIb (read-out: IC50) was 5.15.

`C[C@]12CCCN1N(Cc1cccc(F)c1Br)C(=O)C(C(=O)Nc1ccc(Br)c(F)c1)=C2O` [Example 37]: in experiment [1], the “Rate of uptake inhibition (%) (1 μM)” value turned out to be 89%. Further, the pIC50 at human NaPi-IIb (read-out: IC50) is 5.43. The matching figures for `C[C@]12CCCN1N(Cc1cccc(F)c1F)C(=O)C(C(=O)Nc1ccc(C(F)(F)F)cc1-c1cc(C#N)ccn1)=C2O` [Example 45]: 73% and 4.89. In the same order, the values of `COc1nc(C#N)ncc1-c1cc(C(F)(F)F)ccc1NC(=O)C1=C(O)[C@@]2(C)CCCN2N(Cc2cccc(F)c2F)C1=O` [Example 56] are 88% and 5.14.

Take `COc1c(Cl)ncnc1-c1cc(C(F)(F)F)ccc1NC(=O)C1=C(O)[C@@]2(C)CCCN2N(Cc2cccc(F)c2F)C1=O` [Example 49]: in experiment [1], the “Rate of uptake inhibition (%) (1 μM)” value stood at 85%. The pIC50 on human NaPi-IIb (read-out: IC50) is 4.89. In the same order, the values of `Cc1cc(S(=O)(=O)N(C)C)ccc1-c1cc(C(F)(F)F)ccc1NC(=O)C1=C(O)[C@@]2(C)CCCN2N(Cc2cccc(F)c2F)C1=O` [Example 50] are 79% and 5.08. In the same order, the values of `CSc1ncc(-c2nc(C(F)(F)F)ccc2NC(=O)C2=C(O)[C@@]3(C)CCCN3N(Cc3cccc(F)c3F)C2=O)cn1` [Example 54] are 72% and 5.64. In the same order, the values of `C[C@]12CCCN1N(Cc1ccc(OCCN3CCOCC3)c(F)c1F)C(=O)C(C(=O)Nc1ccc(C(F)(F)F)nc1-c1ccc(OC(F)(F)F)cc1)=C2O` [Example 60] are 78% and 5.06. Consider `CSc1ccc(-c2cc(C(F)(F)F)ccc2NC(=O)C2=C(O)[C@@]3(C)CCCN3N(Cc3cccc(F)c3F)C2=O)cn1` [Example 97], for which the “Rate of uptake inhibition (%) (1 μM)” value in experiment [1] came to 89%. For the same molecule, on human NaPi-IIb (read-out: IC50), the pIC50 is 5.57. For the molecule `COc1nc(C#N)ncc1-c1cc(C(F)(F)F)ccc1NC(=O)C1=C(O)[C@@]2(C)CCCN2N(Cc2ccc(OCCN3CCOCC3)c(F)c2F)C1=O` [Example 55], the “Rate of uptake inhibition (%) (1 μM)” value in experiment [1] worked out at 85%. Also, on human NaPi-IIb (read-out: IC50), the pIC50 is 4.82.

Turning to `C[C@]12CCCN1N(Cc1cccc(F)c1)C(=O)C(C(=O)Nc1ccc(Br)c(F)c1)=C2O` [Example 35], the “Rate of uptake inhibition (%) (1 μM)” value in experiment [1] is given as 79%. Also, at human NaPi-IIb (read-out: IC50), the pIC50 was 4.90. In the case of `C[C@]12CCCN1N(Cc1cccc(F)c1F)C(=O)C(C(=O)Nc1ccc(Br)c(C(F)(F)F)c1)=C2O` [Example 30], the “Rate of uptake inhibition (%) (1 μM)” value in experiment [1] was determined as 71%. Moreover, the pIC50 on human NaPi-IIb (read-out: IC50) is 5.64.

For `C[C@]12CCCN1N(Cc1cccc(F)c1F)C(=O)C(C(=O)Nc1ccc(C(F)(F)F)cc1-c1cnc(C#N)nc1)=C2O` [Example 95], the “Rate of uptake inhibition (%) (1 μM)” value in experiment [1] came to 80%. Also, on human NaPi-IIb (read-out: IC50), the negative-log IC50 (pIC50) is 5.27. As for `CN1N(Cc2ccc(OCCN3C4CCC3COC4)c(F)c2F)C(=O)C(C(=O)Nc2ccc(C(F)(F)F)cc2-c2cc(C(F)(F)F)ncn2)=C(O)C12CCC2` [Example 340], the pIC50 on human NaPi-IIb (read-out: IC50) was 5.00. Turning to `CN1N(Cc2ccc(OCCOCCOCCOCCNC(=O)[C@@H](O)[C@H](O)[C@@H](O)[C@@H](O)CO)c(F)c2F)C(=O)C(C(=O)Nc2ccc(C(F)(F)F)cc2-c2cc(C(F)(F)F)ncn2)=C(O)C12CCCC2` [Example 428, 7-[[2,3-Difluoro-4-[2-[2-[2-[2-[[(2S,3R,4S,5S)-2,3,4,5,6-pentahydroxyhexanoyl]amino]ethoxy]ethoxy]ethoxy]ethoxy]phenyl]methyl]-10-hydroxy-6-methyl-8-oxo-N-[4-(trifluoromethyl)-2-[6-(trifluoromethyl)pyrimidin-4-yl]phenyl]-6,7-diazaspiro[4.5]dec-9-ene-9-carboxamide], the pIC50 at human NaPi-IIb (setting [2]) was 4.64. In the case of `COc1cccc(-c2cc(C(F)(F)F)ccc2NC(=O)C2=C(O)[C@@]3(C)CCCN3N(Cc3cccc(F)c3F)C2=O)c1OC` [Example 44], in experiment [1], the “Rate of uptake inhibition (%) (1 μM)” value was 94%. In the case of `C[C@]12CCCN1N(Cc1cc(F)c(F)c(F)c1)C(=O)C(C(=O)Nc1cc(F)c(Br)c(F)c1)=C2O` [Example 197], on human NaPi-IIb (read-out: IC50), the pIC50 was 5.15. `COCCN(C)CCNc1ccc(CN2C(=O)C(C(=O)Nc3ccc(C(F)(F)F)cc3-c3cc(C(F)(F)F)ncn3)=C(O)C3(CCCC3)N2C)c(F)c1F` [Example 417, 7-(2,3-Difluoro-4-((2-((2-methoxyethyl)(methyl)amino)ethyl)amino)benzyl)-10-hydroxy-6-methyl-8-oxo-N-(4-(trifluoromethyl)-2-(6-(trifluoromethyl)pyrimidin-4-yl)phenyl)-6,7-diazaspiro[4.5]dec-9-ene-9-carboxamide]: the pIC50 on human NaPi-IIb (setting [2]) was 5.66. `C[C@]12CCCN1N(Cc1cccc(OC(F)(F)F)c1)C(=O)C(C(=O)Nc1ccc(C(F)(F)F)cc1-c1cc(C(F)(F)F)ncn1)=C2O` [Example 189]: the pIC50 at human NaPi-IIb (read-out: IC50) was 5.26. On the same count and under the same terms, under `CN1[C@@H](C(C)(C)C)C(O)=C(C(=O)Nc2cccc(C(F)(F)F)n2)C(=O)N1Cc1cccc(F)c1F` [Example 244] stands 5.14.
